{"source": "patent US5563142A", "about": "“Diaromatic substituted compounds as anti-HIV-1 agents” (The Upjohn Company, priority 1994, dated 1996)", "key": {"[1]": {"tested_on": "HIV in primary human peripheral blood lymphocytes", "experiment": "Primary PBL assay: inhibition of viral replication (p24 & RNA)", "assay_type": "cell-based", "conditions": "Human immunodeficiency virus 1, Lymphocyte, primary human lymphocytes infected with HIV, days three and four, read-out: PBL INHIBITION OF VIRAL REPLICATION (p24 & RNA) ED50", "outline": "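Mitogen-stimulated human PBLs infected with standardized HIV, cultured with drug 4 days at one tenth of the antiproliferative half-maximal concentration. Secreted p24 by capture-ELISA and total HIV RNA by hybridization on days 3 and 4, with viability in parallel; ED50 is the concentration giving 50% reduction in p24.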"}, "[2]": {"target": "T1, viral reverse transcriptase (Human immunodeficiency virus type 1 group M subtype B, UniProt P04585)", "T1 construct": "Viral reverse transcriptase is found in extracts from bacterial clones; made in house; host or cells: Escherichia coli (extracts of bacterial clones, by the procedure of Larder et al., EMBO J. 6:3133-3137, 1987)", "experiment": "Viral reverse transcriptase inhibition, cell free assay", "assay_type": "biochemical, human immunodeficiency virus (HIV-1)", "conditions": "read-out: RT % INHIBITION (100 μM), 100 μM; poly rC or poly rG template", "outline": "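E. coli-expressed HIV-1 RT extract was incubated with inhibitor, 10 μM [35S]-dNTP, poly rC/rG template and oligo dG/dT primer in Tris pH 8.3 with Mg2+ at 37 °C (30 min; 15 min in an alternative version). DNA incorporation was counted on filters and reported as % inhibition (at 100 μM in one version) and IC50.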"}, "[3]": {"tested_on": "HIV-1 (MT-2 cells infected with HIV-1)", "experiment": "Inhibition of HIV-induced syncytia formation in MT-2 cells", "assay_type": "cell-based", "conditions": "Human immunodeficiency virus 1, MT2; MT-2 cells infected with HIV-1; read-out: INHIBITION OF SYNCYTIA FORMATION ED50", "source_text": "This test is described in Quantitative Infectivity Assay for HIV-1 and -2., Nature 332: 469-470, 1988 as well as in AIDS RESEARCH AND HUMAN RETROVIRUSES, Vol. 4, No. 6, pages 449-455 (1988), Mary Ann Liebent, Inc., Publishers; in an article entitled \"Nucleotide Dimers Suppress HIV Expression In VITRO\". The results (IC50 means the concentration, in μM of drug, required to inhibit syncytia formation to the extent of 50%) of various assay(s) are combined and reported as % inhibition and IC50 (calculated).\nability of various compounds used to inhibit HIVinduced syncytia formatio\nin a tissue culture assay using MT2 cells infected with HIV1. This test i\ndescribed by Nara et al., Quantitative infectivity assay for HIV1 and 2,\nNature 332, 469-470 (1988), as well as in AIDS RESEARCH AND HUMAN\nRETROVIRUSES, vol. 4, No. 6, pages 449-455 (1988), Mary Ann Liebent, Inc.\nPublishers, and in an article by Mariano Busso, et al., entitled\n\"Nucleotide Dimers Suppress HIV Expression In Vitro\". The results\n(ED50 means the concentration, in μM of drug, required to inhibit\nsyncytia formation to the extent of 50%) of various assay are combined an\nreported in Table I. In comparison, the known commercial compound, AZT,\npercent reductions in syncytia formation at concentrations of\napproximately 1 μM and 0.5 μM, respectively."}, "HIV": {"tested_on": "HIV", "conditions": "cited from earlier work"}}, "note": "Structures can show the parent of a compound that is named as a salt."}
{"molecule": "CCNc1cccnc1N1CCN(C(=O)c2cc3cc(O)ccc3[nH]2)CC1", "note": "[Example 37, 1-[5-Hydroxyindolyl-2-carbonyl]-4-[3-(ethylamino)-2-pyridinyl]piperazine]", "values": [{"measurement": "EC50", "setting": "[1]", "result": 100, "unit": "nM"}, {"measurement": "inhibition at 100 µM", "setting": "[2]", "result": "82 to 95", "unit": "%"}, {"measurement": "IC50", "setting": "[3]", "result": 300, "unit": "nM"}]}
{"molecule": "CCNc1cccnc1N1CCN(C(=O)c2cc3c(C)c(OC)c(C)c(C)c3[nH]2)CC1", "note": "[Example 42, 1-[5-Methoxy-4,6,7-trimethylindolyl-2-carbonyl]-4-[3-(ethylamino)-2-pyridinyl]piperazine]", "values": [{"measurement": "EC50", "setting": "[1]", "result": 10000, "unit": "nM"}, {"measurement": "inhibition at 100 µM", "setting": "[2]", "result": 63, "unit": "%"}, {"measurement": "IC50", "setting": "[3]", "result": 2000, "unit": "nM"}]}
{"molecule": "CC(C)(C)Nc1cccnc1N1CCN(C(=O)c2cc3ccccc3[nH]2)CC1", "note": "[Example 44, 1-[Indolyl-2-carbonyl]-4-[3-(1,1-dimethylethylamino)-2-pyridinyl]piperazine]", "values": [{"measurement": "EC50", "setting": "[1]", "result": "1 to 10", "unit": "nM"}, {"measurement": "inhibition at 100 µM", "setting": "[2]", "result": 89, "unit": "%"}, {"measurement": "IC50", "setting": "[3]", "result": 100, "unit": "nM"}]}
{"molecule": "COc1ccc2[nH]c(C(=O)N3CCN(c4ncccc4NC(C)(C)C)CC3)cc2c1", "note": "[Example 45, 1-[5-Methoxyindolyl-2-carbonyl]-4-[3-(1,1-dimethylethylamino)-2-pyridinyl]piperazine hydrochloride salt]", "values": [{"measurement": "EC50", "setting": "[1]", "result": "10 to 100", "unit": "nM"}, {"measurement": "inhibition at 100 µM", "setting": "[2]", "result": "83 to 91", "unit": "%"}, {"measurement": "IC50", "setting": "[3]", "result": 500, "unit": "nM"}]}
{"molecule": "CC(C)(C)Nc1cccnc1N1CCN(C(=O)c2cc3cc(F)ccc3[nH]2)CC1", "note": "[Example 46, 1-[5-Fluoroindolyl-2-carbonyl]-4-[3-(1,1-dimethylethylamino)-2-pyridinyl]piperazine hydrochloride salt]", "values": [{"measurement": "EC50", "setting": "[1]", "result": "1 to 10", "unit": "nM"}, {"measurement": "inhibition at 100 µM", "setting": "[2]", "result": 89, "unit": "%"}, {"measurement": "IC50", "setting": "[3]", "result": 1000, "unit": "nM"}]}
{"molecule": "CCNc1cccnc1N1CCN(C(=O)c2ccc3ccccc3c2)CC1", "note": "[Example 66, 1-[Naphthyl-2-carbonyl]-4-[3-(ethylamino)-2-pyridinyl]-piperazine]", "values": [{"measurement": "EC50", "setting": "[1]", "result": "1000 to 10000", "unit": "nM"}, {"measurement": "inhibition at 100 µM", "setting": "[2]", "result": "68 to 79", "unit": "%"}, {"measurement": "IC50", "setting": "[3]", "result": "> 280000", "unit": "nM"}]}
{"molecule": "CCNc1cccnc1N1CCN(C(=O)c2ccc[nH]2)CC1", "note": "[Example 70, 1-[Pyrrolyl-2-carbonyl]-4-(3-ethylamino-2-pyridinyl)piperazine]", "values": [{"measurement": "EC50", "setting": "[1]", "result": "≥ 1000", "unit": "nM"}, {"measurement": "inhibition at 100 µM", "setting": "[2]", "result": "83 to 91", "unit": "%"}, {"measurement": "IC50", "setting": "[3]", "result": 2000, "unit": "nM"}]}
{"molecule": "CCNc1cccnc1N1CCCN(C(=O)c2cc3ccccc3[nH]2)CC1", "note": "[Example 81, 1-[Indolyl-2-carbonyl]-4-(3-ethylamino-2-pyridinyl)-1,4-diazepine]", "values": [{"measurement": "EC50", "setting": "[1]", "result": "< 1", "unit": "nM"}, {"measurement": "inhibition at 100 µM", "setting": "[2]", "result": "90 to 98", "unit": "%"}, {"measurement": "IC50", "setting": "[3]", "result": 900, "unit": "nM"}]}
{"molecule": "CCNc1cccnc1N1CCCN(C(=O)c2cc3cc(F)ccc3[nH]2)CC1", "note": "[Example 82, 1-(5-Fluoroindolyl-2-carbonyl)-4-(3-ethylamino-2-pyridinyl)-1,4-diazepine]", "values": [{"measurement": "EC50", "setting": "[1]", "result": "10 to 100", "unit": "nM"}, {"measurement": "inhibition at 100 µM", "setting": "[2]", "result": "87 to 93", "unit": "%"}, {"measurement": "IC50", "setting": "[3]", "result": 10000, "unit": "nM"}]}
{"molecule": "CC(C)Nc1cccnc1N1CCCN(C(=O)c2cc3ccccc3[nH]2)CC1", "note": "[Example 83, 1-(Indolyl-2-carbonyl)-4-[3-(1-methylethylamino)-2-pyridinyl]-1,4-diazepine]", "values": [{"measurement": "EC50", "setting": "[1]", "result": "< 1", "unit": "nM"}, {"measurement": "inhibition at 100 µM", "setting": "[2]", "result": "97 to 98", "unit": "%"}, {"measurement": "IC50", "setting": "[3]", "result": "< 300", "unit": "nM"}]}
{"molecule": "CC(C)Nc1cccnc1N1CCN(C(=O)c2cc3cc(N=CN(C)C)ccc3[nH]2)CC1", "note": "[Example 85, 1-[(5N-(N',N'-Dimethylaminomethylene)aminoindolyl)carbonyl]-4-(3(1-methylethylamino)-2-pyridinyl)piperazine, methane sulfonate]", "values": [{"measurement": "EC50", "setting": "[1]", "result": "1 to 10", "unit": "nM"}, {"measurement": "inhibition at 100 µM", "setting": "[2]", "result": "93 to 96", "unit": "%"}, {"measurement": "IC50", "setting": "[3]", "result": "< 200", "unit": "nM"}]}
{"molecule": "CC(C)Nc1cccnc1N1CCN(C(=O)c2cc3cc(NC(=O)CN)ccc3[nH]2)CC1", "note": "[Example 86, 1-[5-(2'-Aminoacetamido)indolyl-2-carbonyl]-4-(3-(1-methylethylamino)-2-pyridinyl)piperazine hydrochloride]", "values": [{"measurement": "EC50", "setting": "[1]", "result": "1 to 10", "unit": "nM"}, {"measurement": "inhibition at 100 µM", "setting": "[2]", "result": "78 to 96", "unit": "%"}, {"measurement": "IC50", "setting": "[3]", "result": "< 200", "unit": "nM"}]}
{"molecule": "CCNc1cccnc1N1CCN(C(=O)c2cc3cc(OC)c(OC)cc3[nH]2)CC1", "note": "[Example 133]", "values": [{"measurement": "EC50", "setting": "[1]", "result": 10, "unit": "nM"}, {"measurement": "inhibition at 100 µM", "setting": "[2]", "result": "76 to 84", "unit": "%"}, {"measurement": "IC50", "setting": "[3]", "result": 1000, "unit": "nM"}]}
{"molecule": "Nc1ccn([C@H]2CC[C@@H](CO)O2)c(=O)n1", "note": "[ddC]", "values": [{"measurement": "activity against HIV in vitro", "setting": "HIV", "result": "potent activity"}]}
{"molecule": "O=c1[nH]cnc2c1ncn2[C@H]1CC[C@@H](CO)O1", "note": "[ddI]", "values": [{"measurement": "activity against HIV in vitro", "setting": "HIV", "result": "potent activity"}]}
